Data taken from patent US9920039B2, “1,2,4-Oxadiazol compounds active against gram-positive pathogens” (UNIVERSITÀ DEGLI STUDI DI MILANO—BICOCCA, priority 2013, dated 2018).
Converted amounts (≈) assume the structure as drawn. Read-outs that look alike come from different tables or passages of the source.

Tests used:
[1] = system: 11 Linezolid-resistant CoNS; assay: MIC summary on strain panel (Table 5); format: cell-based, Staphylococcus epidermidis, Staphylococcus hominis; settings: for MIC50 / MIC90: 11 Linezolid-resistant CoNS
Excerpt: (§1) The in vitro antibacterial activity of the new agents was studied by determining their minimum inhibitory concentrations (MICs) by means of the broth microdilution method according to the Clinical and Laboratory Standards Institute (CLSI) guidelines.[16] Briefly, serial 2-fold dilutions of each compound were made using the Cation adjusted Mueller-Hinton broth (CAMHB) in microtitre plates with 96 wells. Dimethyl sulfoxide (DMSO) was used as solvent for all the synthesized compounds. An equal volume of the bacterial inoculum (1×10^6 CFU/mL) was added to each well on the microtitre plate containing 0.05 mL of the serial antibiotic dilutions. The microtitre plate was then incubated at 37° C. for 18-24 h after which each well was analysed for the presence of bacterial growth. The MIC was defined as the lowest concentration of antimicrobial agent able to cause inhibition of bacterial growth as shown by the lack of turbidity of the culture medium. […] Final DMSO concentrations were also taken into account in all the biological assays.

[2] = system: Staphylococcus aureus ATCC 29213; assay: MIC by broth microdilution (CLSI); format: cell-based
Excerpt: (§2) Several well characterized for their antibiotic-susceptibility phenotype Staphylococcus aureus isolates were used for the determination of the in vitro antibacterial activity of the studied compounds. In particular, S. aureus ATCC 29213 reference standard strain and S. aureus M923 (collection strain) were used as MSSA strains. Among MRSA, S. aureus MU50 (ATCC 700699) reference standard strain and two collection strains (433 and F511) were used for susceptibility assays.
as §1
(§3) The antimicrobial activities, summarized in Table 2, were determined by the “gold standard” method of broth microdilution, as recommended by the Clinical Laboratory Standards Institute (CLSI) (See the Experimental Section). […] In detail, the bacterial strains were tested: Staphylococcus aureus ATCC 29213, a clinical strain of methicillin-susceptible S. aureus (M923), S. aureus MU50 (methicillin-resistant—MRSA), and two methicillin-resistant clinical strains, 433 and F511.
(§4) The antimicrobial activities, summarized in Table 3, were determined by the “gold standard” method of broth microdilution, as recommended by the Clinical Laboratory Standards Institute (CLSI) (See the Experimental Section). The minimum inhibitory concentration (MIC) values were expressed in μg/mL. […] In detail, the tested bacterial strains were: Staphylococcus aureus ATCC 29213, a clinical strain of methicillin-susceptible S. aureus (M923), S. aureus MU50 (methicillin-resistant—MRSA) strain, and two methicillin-resistant clinical strains, 433 and F511.

[3] = system: 45 Linezolid-susceptible MRSA; assay: MIC summary on strain panel (Table 5); format: cell-based, Staphylococcus aureus
Excerpt: In particular, eleven linezolid-resistant coagulase-negative staphylococci (CoNS) (ten S. epidermidis and one S. hominis) were investigated. The eleven linezolid-resistant strains were isolated in several hospital settings between 2010 and 2011 from positive blood cultures. For the […], recently isolated from patients with cystic fibrosis, showing different profiles of multi-resistance to different classes of antimicrobials, was used (Table 4 and 5).
as §1

[4] = system: Linezolid-resistant S. epidermidis Strains 1-10; assay: MIC by broth microdilution (Table 5); format: cell-based, Staphylococcus epidermidis
Excerpt: as §1

[5] = system: Linezolid-resistant S. hominis Strain 11; assay: MIC by broth microdilution (Table 5); format: cell-based, Staphylococcus hominis; settings: S. hominis Strain 11, linezolid-resistant
Excerpt: as §1

[6] = system: ATCC E. faecalis 29212; assay: MIC by broth microdilution (Table 5); format: cell-based, Enterococcus faecalis
Protocol: Dimethyl sulfoxide (DMSO) was used as solvent for all the synthesized compounds. An equal volume of the bacterial inoculum (1×10^6 CFU/mL) was added to each well on the microtitre plate containing 0.05 mL of the serial antibiotic dilutions. The microtitre plate was then incubated at 37° C. for 18-24 h after which each well was analysed for the presence of bacterial growth. The MIC was defined as the lowest concentration of antimicrobial agent able to cause inhibition of bacterial growth as shown by the lack of turbidity of the culture medium. […] Final DMSO concentrations were also taken into account in all the biological assays.

[7] = system: mitochondrial protein synthesis (OXPHOS complexes) in HepG2 cells; assay: Oxidative phosphorylation (OXPHOS) assay
Excerpt: This assay (Nadaciva S. et al., 2010) is used to monitor the level of mitochondrial protein synthesis of some key proteins in the process of oxidative phosphorylation of eukaryotic cells, comparing it with the level of synthesis of mitochondrial proteins encoded by nuclear DNA. This study allows us to analyze the effects of A4bS on the proteins encoded by mitochondrial DNA (mtDNA).
The data represent the mean±SEM of three separate experiments performed in triplicate. Statistical significance is obtained by the Student's test compared to the […].

[8] = system: 12 MRSE all LZD sensitive; assay: MIC on strain panel (Table 4); format: cell-based, Staphylococcus epidermidis
Excerpt: as §1

[9] = system: 6 ATCC (4MSSA, 2 MRSA)plus45 MRSA all LZD sensitive; assay: MIC on strain panel (Table 4); format: cell-based, Staphylococcus aureus; settings: 6 ATCC plus 45 MRSA
Excerpt: as §1

[10] = system: MRSA clinical strain F511; assay: MIC by broth microdilution (CLSI); format: cell-based, Staphylococcus aureus; settings: Staphylococcus aureus
Excerpt: as §2, §1, §3, §4

[11] = system: methicillin-susceptible S. aureus (M923); assay: MIC by broth microdilution (CLSI); format: cell-based, Staphylococcus aureus; settings: Staphylococcus aureus
Excerpt: as §2, §1, §3, §4

[12] = system: MRSA clinical strain 433; assay: MIC by broth microdilution (CLSI); format: cell-based, Staphylococcus aureus; settings: MRSA 433
Excerpt: as §2, §1, §3, §4

[13] = system: S. aureus MU50 (ATCC 700699), methicillin-resistant (MRSA); assay: MIC by broth microdilution (CLSI); format: cell-based, Staphylococcus aureus
Excerpt: as §2, §1, §3, §4

[14] = ATCC S. aureus 29213, resolved enantiomers, Table 5, read-out: MIC
[15] = S. epidermidis Strain 1, linezolid-resistant
[16] = S. epidermidis Strain 2, linezolid-resistant
[17] = S. epidermidis Strain 3, linezolid-resistant
[18] = S. epidermidis Strain 4, linezolid-resistant
[19] = S. epidermidis Strain 5, linezolid-resistant
[20] = S. epidermidis Strain 6, linezolid-resistant
[21] = S. epidermidis Strain 7, linezolid-resistant
[22] = S. epidermidis Strain 8, linezolid-resistant
[23] = S. epidermidis Strain 9, linezolid-resistant
[24] = S. epidermidis Strain 10, linezolid-resistant
[25] = Staphylococcus aureus, racemic mixture, Table 2, read-out: MIC

| SMILES | MIC50 [1] [µg/mL] | MIC90 [1] [µg/mL] | MIC [2, 14] [µg/mL] | MIC50 [3] [µg/mL] | MIC [4, 15] [µg/mL] | MIC [4, 16] [µg/mL] | MIC [4, 17] [µg/mL] | MIC [4, 18] [µg/mL] | MIC [4, 19] [µg/mL] | MIC [4, 20] [µg/mL] | MIC [4, 21] [µg/mL] | MIC [4, 22] [µg/mL] | MIC [4, 23] [µg/mL] | MIC [4, 24] [µg/mL] | MIC [5] [µg/mL] | MIC [6] [µg/mL] | other results |
| --- | --- | --- | --- | --- | --- | --- | --- | --- | --- | --- | --- | --- | --- | --- | --- | --- | --- |
| CC(=S)NC[C@H]1CN(c2ccc(-c3nc(C)no3)cc2)C(=O)O1 [Compound A4aS] | 8 (≈ 24.1 µM) | 32 (≈ 96.3 µM) | 8 (≈ 24.1 µM) | 2 (≈ 6.02 µM) | 8 (≈ 24.1 µM) | 32 (≈ 96.3 µM) | 4 (≈ 12 µM) | 32 (≈ 96.3 µM) | 4 (≈ 12 µM) | 4 (≈ 12 µM) | 32 (≈ 96.3 µM) | 32 (≈ 96.3 µM) | 1 (≈ 3.01 µM) | 8 (≈ 24.1 µM) | 8 (≈ 24.1 µM) | 4 (≈ 12 µM) |  |
| CC(=S)NC[C@@H]1CN(c2ccc(-c3nc(C)no3)c(F)c2)C(=O)O1 [Compound A4bR] | 128 (≈ 365 µM) | 128 (≈ 365 µM) | 64 (≈ 183 µM) | 128 (≈ 365 µM) | 128 (≈ 365 µM) | > 128 | > 128 | 128 (≈ 365 µM) | 128 (≈ 365 µM) | 64 (≈ 183 µM) | > 128 | 128 (≈ 365 µM) | > 128 | 128 (≈ 365 µM) | 128 (≈ 365 µM) | 32 (≈ 91.3 µM) |  |
| CC(=S)NC[C@H]1CN(c2ccc(-c3nc(C)no3)c(F)c2)C(=O)O1 [Compound A4bS] | 4 (≈ 11.4 µM) | 8 (≈ 22.8 µM) | 4 (≈ 11.4 µM) | 0.5 (≈ 1.43 µM) | 8 (≈ 22.8 µM) | 8 (≈ 22.8 µM) | 4 (≈ 11.4 µM) | 4 (≈ 11.4 µM) | 2 (≈ 5.71 µM) | 4 (≈ 11.4 µM) | 8 (≈ 22.8 µM) | 2 (≈ 5.71 µM) | 1 (≈ 2.85 µM) | 4 (≈ 11.4 µM) | 4 (≈ 11.4 µM) | 2 (≈ 5.71 µM) | effect on linezolid resistance (in words) ([1]; linezolid-resistant Staphylococcus spp. strains): completely reversed resistance to linezolid into susceptibility; effect on proteins synthesized by mtDNA (in words) [7]: reduction of the synthesis of proteins of complex I and IV |
| CC(=O)NC[C@H]1CN(c2ccc(N3CCOCC3)c(F)c2)C(=O)O1 [Linezolid, reference compound] |  |  |  |  |  |  |  |  |  |  |  |  |  |  |  |  | MIC range [8]: 32 to 64 µg/mL; MIC50 ([8]; Staphylococcus epidermidis, read-out: MIC50): 32 µg/mL (≈ 94.9 µM); MIC90 ([8]; Staphylococcus epidermidis, read-out: MIC90): 64 µg/mL (≈ 190 µM); MIC-range ([9]; tested range ≤0.06 - >128): 0.25 to 16 µg/mL; MIC50 ([9]; Staphylococcus aureus, read-out: MIC50): 2 µg/mL; MIC90 ([9]; Staphylococcus aureus, read-out: MIC90): 4 µg/mL; MIC ([2]; ATCC 29213, racemic form, Table 3): ≤0.4 µg/mL; MIC ([2]; Staphylococcus aureus, ATCC29213, ATCC 29213, racemic mixture, Table 2, read-out: MIC): ≤ 0.4 µg/mL; MIC ([10]; MRSA, racemic mixture, Table 2): 3.13 µg/mL (≈ 9.28 µM); MIC ([10]; racemic form, Table 3, read-out: MIC): 3.12 µg/mL (≈ 9.26 µM); MIC ([11]; MSSA, racemic mixture, Table 2): 3.13 µg/mL (≈ 9.28 µM); MIC ([11]; MSSA M923, racemic form, Table 3, read-out: MIC): 3.12 µg/mL (≈ 9.26 µM); MIC ([12]; racemic form, Table 3): 1.6 µg/mL (≈ 4.74 µM); MIC [12, 25]: 1.6 µg/mL (≈ 4.74 µM); MIC [13, 25]: 0.8 µg/mL (≈ 2.37 µM); MIC ([13]; racemic form, Table 3): 0.8 µg/mL (≈ 2.37 µM); effect on proteins synthesized by mtDNA (in words) ([7]; HepG2, linezolid 100 μg/mL, A4bS 10-100 μg/mL, vs non-treated cells, FIG. 6): significant decrease |
